“Also recorded” adds a separate entry of the source.
How the values were obtained:
pig hearts = test: Ex-vivo isolated pig heart perfusion after 6 hours of ice storage in HTK with or without VPA; details: 6 grams VPA in 2 liters HTK, 6 hours on ice
Method: FIG. 1. Coronary vascular resistance after two hours of ex-vivo pig heart perfusion. […] 6 grams of VPA was dissolved in 2 liters of heart preservation solution (histidine-tryptophan-ketoglutarate solution, HTK) and then infused this through the aortic root of freshly sacrificed pig hearts (n=3). For the control group (n=3) only HTK solution was infused. HTK solution is one of the standard donor heart preservation solutions used clinically for heart transplantation. The pig heart was then stored in ice after mechanical arrest with HTK solution as per standard transplant protocol for a total of 6 hours. After 6 hours, the hearts were retrieved and perfused with pig blood in an ex-vivo isolated heart perfusion model. The hearts were then examined for cardiac performance.

[1] = system: donor hearts from C57BL/6J mice; test: Reanimation of murine donor hearts on ex-vivo Langendorff apparatus after cold storage; details: up to 5 hours of cold storage, vs HTK solution
Method: From murine heart experiments, donor hearts from C57BL/6J mice were preserved with either HTK solution or VPA+HTK solution and then stored in ice as per clinical protocols. The cold storage time was varied from 0 hour to 9 hours before reperfusing on an ex-vivo Langendorff apparatus.

human donor hearts = test: RNA-Seq gene set enrichment analysis of human donor hearts during cold (4° C.) storage
Method: For treatment of human donor hearts, 6 grams of VPA was dissolved in 2 liters of HTK preservation solution and also used 2 liters of HTK solution as control. The solutions were then infused this through the aortic root of human donor hearts (n=3). RNA-Seq was performed to study the transcriptomic effect of VPA on the human heart during cold (4° C.) storage. Total RNA was isolated from the heart tissue stored at 0 h, 4 h and 8 h time points. Gene set enrichment analysis was then performed at different time points with or without VPA treatment.

murine donor hearts [2] = test: Hemodynamics (max dp/dt, min dp/dt) of murine donor hearts after cold storage and ex-vivo reperfusion
Method: FIG. 5A-C. […] The max dp/dt (A) and min dp/dt (B) were calculated by averaging the max/min dp/dt in 20 minutes stable period after different cold storage periods followed by perfusion. The max dp/dt or −min dp/dt of hearts were normalized to percentage of time 0. **p<0.01. (C) VPA suppress the Ill and Myd88 protein level induced by cold storage.
FIG. 9A-C. […] Following spironolactone treatment, much improved (A) max dp/dt and (B) min dp/dt after prolonged storage after 8 hours and 12 hours was observed compared to HTK alone. N=4. **p<0.01, ***p<0.001 (C) Spironolactone suppress the Il1 and Myd88 protein level induced by cold storage.
(§1) Experiments were conducted during development of embodiments herein to examine the effect of VPA on donor heart function with prolonged cold storage of donor heart. To address this, murine donor hearts were perfused with 7-8 mL HTK solution alone or HTK with 20 mM VPA and then stored the heart for 0, 4, and 8 hours.
Murine donor hearts were isolated and preserved in HTK solution for 0 h, 4 h and 8 h. The cardiac hemodynamics were then examined in an ex-vivo perfusion system. […] This was accompanied by increasing apoptotic cell death by TUNEL staining (FIG. 6C). Occurrence of cell death processes such as apoptosis with increasing storage duration is corroborated by Increased expression of cleaved poly (ADP-ribose) polymerase (PARP), a marker of cell death (FIG. 6D).
(§2) Experiments were conducted during development of embodiments herein to determine whether pharmacological inhibition of MR signaling improves the heart function after prolonged cold storage period. To address this, murine donor hearts were perfused with 7-8 mL HTK solution alone or HTK with 25 μM spironolactone and then stored the heart for 0, 8 and 12 hours.

Il1 = Il1 protein level in donor heart after cold storage (western blot); design: species or system murine
Method: as §1, §2

Myd88 = Myd88 protein level in donor heart after cold storage (western blot); design: species or system murine
Method: as §1, §2

murine donor hearts [3] = test: Hemodynamics (max dp/dt, min dp/dt) of murine donor hearts after cold storage and ex-vivo reperfusion; remark: listed apart in the source
[4] = HTK with 20 mM VPA vs HTK alone, after 4 h and 8 h of cold storage
[5] = Alda-1 vs HTK alone, after 8 h of cold storage
[6] = HTK with 25 μM spironolactone vs HTK alone, after 8 h and 12 h of cold storage
[7] = HTK with 25 μM spironolactone vs HTK alone, after 8 h and 12 h of cold storage, listed as spironolactone
[8] = spironolactone, western blot, listed as spironolactone
[9] = canrenone vs HTK alone, after 8 hours of preservation
[10] = canrenone vs HTK alone, prolonged storage after 4 hours and 8 hours

Structure (SMILES): CCCC(CCC)C(=O)O [VPA, Valproic acid]
- fibrillatory arrest during ex-vivo perfusion (pig hearts; pig hearts (n=3), control 2 out of 3): None
- Coronary vascular resistance / coronary vascular tone (pig hearts; pig hearts, after two hours of ex-vivo perfusion, vs HTK control): improved; also recorded: trend toward better maintenance
- cardiac reanimation [1]: successful and comparable for both groups
- NES, Inflammatory response (human donor hearts; LV, VPA vs HTK Only): −1.47
- NES, Interferon gamma response (human donor hearts; LV, VPA vs HTK Only): −1.65
- NES, TNFa signaling via NFkB (human donor hearts; LV, VPA vs HTK Only): −1.68
- accumulation of genes related to inflammatory response (human donor hearts; LV, during cold storage): significantly reduced
- NES, Inflammatory response (human donor hearts; RV, VPA vs HTK Only): −1.32
- NES, P53 pathway (human donor hearts; RV, VPA vs HTK Only): −1.25
- NES, TNFa signaling via NFkB (human donor hearts; RV, VPA vs HTK Only): −1.96
- activation of p53 proapoptotic pathway (human donor hearts; RV, during cold storage): reduced the activation
- expression of inflammatory response genes (human donor hearts; RV, during cold storage): reduced expression
- max dp/dt (donor heart contractility) (murine donor hearts [2]; [4]): improves donor heart function; also recorded: dramatically improved
- min dp/dt (donor heart relaxation) (murine donor hearts [2]; [4]): improves donor heart function; also recorded: dramatically improved
- Il1 protein level (Il1; HTK with 20 mM VPA): suppress; also recorded: reduced protein level
- Myd88 protein level (Myd88; HTK with 20 mM VPA): suppress; also recorded: reduced protein level

Structure (SMILES): O=C(NCc1ccc2c(c1)OCO2)c1c(Cl)cccc1Cl [Alda-1, N-(1,3-benzodioxo1-5-ylmethyl)-2,6-dichlorobenzamide]
- max dp/dt (donor heart contractility) (murine donor hearts [3]; [5]): dramatically improves; also recorded: improved
- min dp/dt (donor heart relaxation) (murine donor hearts [3]; [5]): dramatically improves; also recorded: improved

Structure (SMILES): CC(=O)S[C@@H]1CC2=CC(=O)CC[C@]2(C)[C@H]2CC[C@@]3(C)[C@@H](CC[C@@]34CCC(=O)O4)[C@H]12 [Spironolactone, spironolactone]
- max dp/dt (donor heart contractility) (murine donor hearts [2]; [6]): much improved
- min dp/dt (donor heart relaxation) (murine donor hearts [2]; [6]): much improved
- max dp/dt (donor heart contractility) (murine donor hearts [2]; [7]): dramatically improved
- min dp/dt (donor heart relaxation) (murine donor hearts [2]; [7]): dramatically improved
- Il1 protein level (Il1; spironolactone, western blot): suppress
- Il1 protein level (Il1; [8]): significantly reduced
- Myd88 protein level (Myd88; spironolactone, western blot): suppress
- Myd88 protein level (Myd88; [8]): significantly reduced

Structure (SMILES): C[C@]12CCC(=O)C=C1C=C[C@@H]1[C@@H]2CC[C@@]2(C)[C@H]1CC[C@@]21CCC(=O)O1 [Canrenone, canrenone]
- max dp/dt (donor heart contraction) (murine donor hearts [3]; [9]): significantly improves
- min dp/dt (donor heart relaxation) (murine donor hearts [3]; [9]): significantly improves
- max dp/dt (murine donor hearts [3]; [10]): much improved
- min dp/dt (murine donor hearts [3]; [10]): much improved

Reference: US20220322656A1, “PRESERVATION OF ORGANS FOR TRANSPLANT AND NON-TRANSPLANT SURGERIES” (The Regents of the University of Michigan, priority 2019, published 2022)
